Assay results reported in US20250228853A1, “Apoptosis Inhibitors” (Queen's University at Kingston, priority 2024, published 2025).
Entries after “also recorded” stand apart in the source; their conditions may differ.

Experiments:
[1] = test system: BEAS-2B cells infected with HCoV-OC43; assay: apoptosis by TUNEL staining in HCoV-OC43 infected BEAS-2B cells; assay type: cell-based, human; conditions: for apoptosis (TUNEL positive cells): BEAS-2B, 48 h treatment from 24 h post infection, FIG. 1B; for effectiveness in the in vitro screening to confirm biological activity: in vitro screening as described in the patent
Description: (§1) Cell Culture: BEAS-2B cells (an epithelial cell line that was isolated from normal human bronchial epithelium) were purchased from the American Type Culture Collection (ATCC) through Cedarlane Corp., Burlington, Canada. The cells were cultured in bronchial epithelial cell growth medium (Lonza/Clonetics Corporation, Basel, Switzerland) supplemented with 10% fetal bovine serum (FBS). Cells were cultured at 37° C. in a humidified incubator balanced with 5% CO2.
(§2) Compound solution preparation for in vitro experiments: Candidate compounds were dissolved in anhydrous Dimethyl Sulfoxide (DMSO) (available from Sigma Aldrich), filtered by a 0.20 μm PTFE filter and added to culture medium to make a working solution at designated concentrations. Final concentration of DMSO in culture medium was ≤0.1%. Same volume of DMSO was used as control.
(§3) An apoptosis study was conducted (see FIGS. 1A-1C). HCoV-OC43 infection (referred to as “OC43” herein) see Archer, S. L., et al., Redox Biology ([…]) 58:102508) was performed in BEAS-2B cells (an epithelial cell line that was isolated from normal human bronchial epithelium, available from ATCC through Cedarlane Corp., Burlington, Canada). Cells were counted and then seeded in a cell culture plate overnight. The cell culture media was replaced with serum-free media containing 3 focus-forming units (ffu)/cell of OC43 virus. The cells were cultured in this inoculum for 2 hours. Then the inoculum was replaced with complete growth medium and incubated at 33° C. until 72 hours post-infection (the time of the experimental endpoint). Cells were then treated for 48 hours with AIF Inhibitor compounds starting at 24 hours post infection. Concentration of compounds: AIF inhibitor 1, AIF inhibitor 3, and AIF inhibitor 6 were used at a concentration of 10 uM; Drpitor1a, which is a Drp1 inhibitor and is not an AIF inhibitor) was used at a concentration of 1 uM. Cell viability was measured by cell count (see FIG. 1A). Apoptotic cells were measured by TUNEL staining (see FIG. 1B) (see Archer, S. L., et al., Redox Biol. (2022) 58:102508). Cells were dual stained with Click-iT® Plus TUNEL (available from Thermo Fisher, Waltham, MA, USA) and 4′,6-diamidino-2-phenylindole (DAPI) (available from Thermo Fisher, Waltham, MA, USA). Images were captured on a Leica SP8 confocal microscope using a 63×1.4 NA objective and a white light laser at 488 nm. Emission acquisition gating was 510-530 nm (for TUNEL). A 405 nm laser diode was used for DAPI excitation and the emission acquisition gate was set at 420-480 nm. Viral loads were quantified using qRT-PCR (see FIG. 1C). mRNA level of HCoV-OC43 N protein was measured and compared among treatment groups.

HCoV-OC43 = assay: viral load by qRT-PCR of HCoV-OC43 N protein mRNA in BEAS-2B cells; assay type: cell-based, Human coronavirus OC43; conditions: 48 h treatment from 24 h post infection, FIG. 1C
Description: as §1, §2, §3

[2] = test system: BEAS-2B cells infected with HCoV-OC43; assay: cell viability by cell count in HCoV-OC43 infected BEAS-2B cells; assay type: cell-based, human; conditions: 1 uM, 48 h treatment from 24 h post infection, endpoint 72 h, FIG. 1A
Description: as §1, §2
An apoptosis study was conducted (see FIGS. 1A-1C). […] Cells were counted and then seeded in a cell culture plate overnight. […] Cell viability was measured by cell count (see FIG. 1A). Apoptotic cells were measured by TUNEL staining (see FIG. 1B) (see Archer, S. L., et al., Redox Biol. (2022) 58:102508). […] Viral loads were quantified using qRT-PCR (see FIG. 1C). mRNA level of HCoV-OC43 N protein was measured and compared among treatment groups.

[3] = test system: murine hepatitis virus-1 (MHV-1); assay: murine model of MHV-1 pneumonia (lung photographs, micro-CT, hemodynamics); assay type: in vivo; conditions: 1 mg/kg QD IP 5 days
Description: Five-week-old A/J mice (Jackson Labs, Bar Harbour, Maine) were given an intranasal inoculation of either MHV-1 (5000 PFU/17 μl) or an identical volume of saline as control. AIF inhibitor 6 was administered for 5 days (1 mg/kg, QD, IP) post infection. At day 5 post-infection, mice were anesthetized with a single IP injection of ketamine/xylazine (150 mg/kg and 10 mg/kg, respectively). O2 saturation was measured while mice breathed room air, following which they were intubated and mechanically ventilated, which increased their O2 saturation. Transcutaneous O2 saturation was monitored during the procedure using a MouseSTAT® Jr. rodent pulse oximeter attached to the rear paw (Kent Scientific Corporation, Torrington, CT, USA). Right heart catheterization (RHC) was performed using a 1.2F Scisense pressure-volume catheter (Transonic Systems Inc., Ithaca, NY, USA) via a closed chest approach. Mice were ventilated with normoxic gas (room air, 20.6% O2) for 10 minutes, followed by hypoxic gas for 10 minutes (10% 02 balanced with N2) and then followed by normoxic gas (room air, 20.6% O2) for 10 minutes. This regimen was designed to elicit hypoxic pulmonary vasoconstriction (HPV), a normal physiologic response of the pulmonary arteries to airway hypoxia.
Referring to FIGS. 2A-2B, photographs and micro-CT images are shown from a study probing the effect of AIF Inhibitors on murine lung that had been exposed to MHV-1. Lungs were fixed with 4% formaldehyde (PFA) and perfused with 25% barium sulfate via the trachea and imaged by microCT. The micro-CT images were acquired using a VECTor4CT pre-clinical scanner (MILabs B.V., Utrecht, Netherlands) equipped with a cone beam X-ray CT system. The measurements used an acceleration voltage of 50 kVp and X-ray tube current of 430 μA in the ultra-focus mode, allowing acquisition of 3,600 projections with exposure time 40 ms, resulting in a 25 μm resolution. Tomographic CT images of FIG. 2B were compiled using MILabs reconstruction software. For quantification and segmentation, CT image data was manually processed using PMOD 3.9 software (PMOD Technologies Ltd., Zurich, Switzerland).

[4] = MHV-1 infected mice, vs vehicle, FIG. 2A

Row | SMILES | apoptosis (TUNEL positive cells) ([1]; HCoV-OC43, 10 uM) | effectiveness in the in vitro screening to confirm biological activity [1] | viral load (Relative N expression, Nucleocapsid mRNA) (HCoV-OC43; HCoV-OC43, 10 uM) | cell numbers (cell count) after HCoV-OC43 infection [2] | apoptosis (TUNEL positive cells) ([1]; HCoV-OC43, 1 uM) | viral load (Relative N expression, Nucleocapsid mRNA) (HCoV-OC43; HCoV-OC43, 1 uM) | lung edema [3, 4] | structural damage of the lungs [3, 4] | lung perfusion (micro-CT, barium contrast) ([3]; MHV-1 infected mice, vs vehicle, FIG. 2B) | hypoxic pulmonary vasoconstriction (rise in RVSP with hypoxia) ([3]; MHV-1 infected mouse, 10% O2 for 10 min, one mouse per group, FIG. 2C)
1 | CN1C(CC2=NC(C3CCOCC3)CC(=O)N2)=NCc2ccccc21 (stereo not shown) [Compound 1, 2-[(1-methyl-1,4-dihydroquinazolin-2-yl)methyl)-6-(tetrahydro-2H-pyran-4-yl)-5,6-dihydropyrimidin-4 (3H)-one] | reduced | particularly effective | reduced viral load |  |  |  |  |  |  | 
2 | O=C1c2ccncc2C(=O)c2c1[nH]c1ccccc21 [Drpitor1a, reference compound] |  |  |  | reversed | reduced | reduced viral load |  |  |  | 
3 | O=C1c2ccccc2C(=O)N1CCc1c[nH]c2ccc(OCc3ccccc3)cc12 [Compound 6, 2-(2-(5-(benzyloxy)-1H-indol-3-yl)ethyl) isoindoline-1,3-dione] | reduced | particularly effective | lowers the viral titer; also recorded: reduced viral load |  |  |  | reduced lung edema | significantly less structural damage | increased lung perfusion | restored hypoxic pulmonary vasoconstriction
4 | CCN(CC)C(=O)c1nc2ccccc2cc1C(=O)c1cc(=O)[nH]c2ccccc12 [Compound 3, N,N-diethyl-3-(2-oxo-1,2-dihydroquinoline-4-carbonyl) quinoline-2-carboxamide] | reduced | particularly effective | reduced viral load |  |  |  |  |  |  | 
